For one experiment, the system named is native GABAA receptors. In words: GABAA antagonism using native receptors in primary neuronal cultures (FLIPR). To be noted: against GABA at 10 μM, rat cortical embryonic neurons. The experiment is classed as cell-based. The protocol:
Activity of compounds on native GABAA receptors is evaluated by monitoring calcium fluxes using a 96 well format FLIPR® system (Fluorometric Imaging Plate Reader (FLIPR®, Molecular Devices). Briefly, cortical embryonic neurons are dissociated from E18 rat embryos and plated at optimum density into black-walled, transparent bottom poly-D-lysine coated 96-well FLIPR® plates. After loading the cells with a calcium sensitive dye (Fluo4-AM, Molecular Devices), the cells are bathed in a solution containing low chloride (chloride replaced by gluconate). Under these conditions activation of GABAA receptors causes an efflux of chloride ions (in the direction of the chemical gradient), which results in membrane depolarization and consequently activation of voltage gated calcium channels (VGCCs). Calcium influx through VGCCs is recorded and analysed offline using the FLIPR® system. For a pharmacological validation of the assay, concentration response curves (CRC) are recorded for the standard agonist (GABA) and standard antagonist (Gabazine). […]
The antagonist effects of compounds are quantified using 10-point dose response curves by comparing the peak fluorescent responses to the agonist GABA in the presence and absence of compound. […] Antagonist effects are calculated as a percent of the assay window. […]

The target in the next experiment is T1, 5-HT2A Receptor (Rattus norvegicus, UniProt P14842).
T1 construct: from tissue; host or cells: rat brain (frontal cortex against cerebellum), in vivo
In words: 5-HT2A receptor occupancy (MDL 100907 tracer). The class given is in vivo. To be noted: oral gavage, RO 1 hr. after dosing. As for the experimental part: Briefly, male Sprague-Dawley rats (Harlan Sprague-Dawley, Indianapolis, Ind.) weighing approximately 230-280 grams are given ad lib access to food and water until the beginning of the 3-hr. experimental protocol. 1 mg/kg ketanserin (non-selective 5-HT2A antagonist) is used as a positive control to establish assay validity. Test compounds or control are administered by oral gavage in a vehicle comprised of 20% hydroxypropyl beta-cyclodextrin. MDL 100907 ((R)-(+)-α-(2,3-Dimethoxyphenyl)-1-[2-(4-fluorophenyl)ethyl]-4-piperidinemethanol), a selective 5-HT2A antagonist, is used as a tracer. […] It is at the time of tracer administration that RO is considered to be measured. […] The level of MDL 100907 tracer is measured in each cortical and cerebellar sample. RO is calculated using the well-established ratio method which employs a region of high receptor density representative of total binding (frontal cortex) normalized by an area without or with very low levels of receptor (cerebellum). […]
Cortex and cerebellar samples are weighed and placed in conical centrifuge tubes on ice. […] Standards are prepared by adding known quantities of analyte to brain tissue samples from non-treated rats and processing as described above. […]

The structures appear in SMILES notation. Where a name gives a salt, the structure may show the parent alone.

T1 sequence (P14842 whole entry): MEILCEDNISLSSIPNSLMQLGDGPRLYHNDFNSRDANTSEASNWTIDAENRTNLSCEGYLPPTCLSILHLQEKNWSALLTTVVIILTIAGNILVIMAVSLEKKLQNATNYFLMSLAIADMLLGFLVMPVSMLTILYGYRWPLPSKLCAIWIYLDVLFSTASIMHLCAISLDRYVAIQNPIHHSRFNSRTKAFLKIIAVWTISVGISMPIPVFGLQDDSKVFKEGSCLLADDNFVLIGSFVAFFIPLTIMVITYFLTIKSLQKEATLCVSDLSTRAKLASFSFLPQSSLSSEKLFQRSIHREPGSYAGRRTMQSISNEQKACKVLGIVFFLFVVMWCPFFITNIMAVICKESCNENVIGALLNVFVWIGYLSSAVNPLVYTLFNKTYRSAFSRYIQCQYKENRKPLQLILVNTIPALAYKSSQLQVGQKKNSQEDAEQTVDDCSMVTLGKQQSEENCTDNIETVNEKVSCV

The term IC50 denotes the concentration at which inhibition is half-maximal. One may read the ED50 as the midpoint of the dose-response relation. Low values mean an effect at a small dose, high ones a need for a large dose. With `Cc1ccc2c(c1)Oc1sc(C)cc1C(N1CCN(CC(C)(C)C(=O)O)CC1)=N2` [Example 2, 3-[4-(2,8-Dimethylthieno[2,3-b][1,5]benzoxazepin-4-yl)piperazin-1-yl]-2,2-dimethyl-propanoic acid dihydrochloride], in the experiment on native GABAA receptors, the concentration for half-maximal inhibition (IC50) was found to be 98 µM. On 5-HT2A Receptor, this molecule displayed a median effective dose (ED50) of 0.09 mg/kg.

The values are drawn from patent US9512140B2, “(Thieno[2,3-b][1,5]benzoxazepin-4-yl)piperazin-1-yl compounds as dual activity H1 inverse agonists/5-HT2A antagonists” (priority 2011, dated 2016).
